Values of other authors, collected in patent US7713569B2, “Hydroxytyrosol-rich composition from olive vegetation water and method of use thereof” (Creagri, Inc., priority 2000, dated 2010).

What was measured:
[1] = tested on: peroxynitrite dependent DNA base modification and tyrosine nitration; conditions: Deiana et al., 1999
platelet aggregation = conditions: Petroni et al., 1995
[2] = humans; Visioli et al., 2000
[3] = tested on: various human cellular systems; conditions: Manna et al., 2000
5-lipoxygenase = conditions: de la Puerta et al., 1999; Kohyama et al., 1997
12-lipoxygenase = conditions: de la Puerta et al., 1999; Kohyama et al., 1997
[4] = tested on: low density lipoprotein (LDL) oxidation; conditions: Visioli and Galli, 1998

absorption following ingestion [2]: dose-dependently absorbed | inhibition of 5-lipoxygenase (5-lipoxygenase): inhibits | inhibition of 12-lipoxygenase (12-lipoxygenase): inhibits
SMILES: OCCc1ccc(O)c(O)c1 [hydroxytyrosol, 3,4-dihydroxyphenethyl alcohol]
effect on peroxynitrite dependent DNA base modification and tyrosine nitration [1]: inhibitory effect | platelet aggregation (platelet aggregation): prevents | cytotoxicity induced by reactive oxygen species [3]: counteracts | LDL oxidation [4]: prevents
